Measured values reported in patent US20030134848A1, “Substituted 1-aza-2-imino-heterocycles and their use as nicotinic acetylcholin receptors activators” (priority 2000, published 2003).
Like-named read-outs stand apart in the source and are kept apart here.

Legend:
[1] = target: T1, α4β2 subtype of nicotinic acetylcholine receptors (Rattus norvegicus, UniProt P09483+P12390); experiment: Binding assay at α4β2 subtype of nicotinic acetylcholine receptors ([3H]-cytisine, rat brain membrane); settings: for remaining activity at 1 µM / remaining activity at 10 µM: read-out: control % of [3H]-cytisine binding
T1 construct: rat brain membrane obtained from whole homogenized brain; from tissue; host or cells: whole brain of Fischer-344 male rats, membrane fraction
From the text: (§1) The methods for evaluating the binding capabilities of the compounds at nicotinic acetylcholine receptors are different by subtypes of receptors. The binding capabilities of the compounds at α4β2 nicotinic acetylcholine receptors are examined using rat brain membrane obtained from whole homogenized brain, and determining the inhibiting rate of the compounds against [^3H]-cytisine binding to said brain membrane. Furthermore, the binding capabilities of the compounds at α1β1γδ nicotinic acetylcholine receptors are examined using homogenized rat muscle, and determining the inhibiting rate of the compounds against [^3H]-α-bungarotoxin binding to said muscle homogenate.
The affinity of the compounds of the present invention to α4β2 subtype of nicotinic acetylcholine receptors was performed by the following method, which was modified method described by Pabreza L. A., Dhawan S. & Kellar K. J., Mol. Pharm., 39, 9-12 (1990), and by Anderson D. J. & Arneric S. P., Eur. J. Pharm., 253, 261-267 (1994).
(1) Preparation of Rat Brain Membrane Containing α4β2 Subtype of Nicotinic Acetylcholine Receptors
Fischer-344 strain male rats (body weight: 200-240 g; 9 weeks old) obtained from Charles River Japan were used. Rats were housed in the breeding cage controlled of the room temperature at 23±1° C., and the humidity of 55±5% for 1 to 4 weeks. Rats (3 to 4 rats per a cage) were housed with lights on for 12 hours daily (from 7:00 to 19:00), and allowed free access to food and water.
Preparation of rat brain membrane containing α4β2 subtype of nicotinic acetylcholine receptors was performed as follow. That is, rat brains were isolated just after sacrificed by decapitation, washed with ice-cooled saline solution and then frozen at −80° C. with liquid nitrogen and stored till using. After thawing the frozen brain, the brain was homogenized in 10 volumes of ice-cooled buffer solution (50 mM of Tris-HCl, 120 mM of NaCl, 5 mM of KCl, 1 mM of MgCl2, 2 mM of CaCl2; pH 7.4; 4° C.) using homogenizer (HG30, Hitachi Kohki Ltd.) for 30 seconds, and the homogenate were centrifuged under 1,000×G for 10 minutes at 4° C. The resulting supernatant was separated and the pellet was homogenized again with half volume of aforementioned prior buffer solution and centrifuged under the same conditions. Combined supernatant was further centrifuged under 40,000×G for 20 minutes at 4° C. The pellet was suspended in buffer solution and used for binding assays at receptors.
(2) Experiments of α4β2 Subtype of Nicotinic Acetylcholine Receptors Binding
Suspensions of membrane pellets containing 400-600 μg of protein were added to test tubes containing test compounds and [^3H]-cytisine (2 nM) in a final volume of 200 μl and incubated for 75 minutes in ice-cooled bath. The samples were isolated by vacuum filtration onto Whatman GF/B filters, which were prerinsed with 0.5% polyethylenimine just prior to sample filtration, using Brandel multi manifold cell harvester. The filters were rapidly washed with buffer solution (3×1 ml). The filters were counted in 3 ml of clearsol I (Nacalai Tesque Inc.).
The analyses of the experimental results were conducted by using the Accufit Competition Program (Beckman Ltd.).

[2] = target: α1β1γδ subtype of nicotinic acetylcholine receptors (Rattus norvegicus, UniProt P18916+P25108+P25110); experiment: biochemical; format: binding; settings: for remaining activity at 100 µM / remaining activity at 1000 µM: read-out: control % of [3H]-α-Bgt binding; for Ki: read-out: Affinities for receptors Ki α1β1γδ, rat muscle extract, [3H]-α-Bgt 1 nM
From the text: as §1
The affinity of the compounds of the present invention to α1β1γδ subtype of nicotinic acetylcholine receptors was measured by the following method, which was modified method described by Garcha H. S., Thomas P., Spivak C. E., Wonnacott S. & Stolerman I. P., Psychropharmacology, 110, 347-354 (1993).
(1) Preparation of Rat Skeletal Muscles Containing α1β1γδ Subtype of Nicotinic Acetylcholine Receptors
The substantially same animals described in the Biological Experiment 1 were used.
The isolation of α1β1γδ subtype of nicotinic acetylcholine receptors was performed as follow. That is, rat posterior skeletal muscles were isolated just after sacrificed by decapitation, washed with ice-cooled saline solution and then frozen at −80° C. with liquid nitrogen and stored till using. After thawing the frozen muscles, tissue was homogenized (40% w/v) with buffer solution [2.5 mM of sodium phosphate buffer (pH:7.2), 90 mM of NaCl, 2 mM of KCl, 1 mM of EDTA, 2 mM of benzamidine, 0.1 mM of benzethonium chloride, 0.1 mM of PMSF, 0.01% of sodium azide] in Waring blender (Waring blender 34BL97; WARING PRODUCTS DIVISION DYNAMICS CORPORATION OF AMERICA) for 60 seconds. The homogenate were centrifuged under 20,000×G for 60 minutes at 4° C. The supernatant was separated and the resulting pellet was added to the same buffer (1.5 ml/g wet weight), and homogenized under the same conditions. Triton X100 (2% w/v) was added and the mixture was stirred for 3 hours at 4° C. The centrifugation at 100,000×G for 60 minutes at 4° C. yielded the rat muscle extract as supernatant. This was stored at 4° C. for up to 4 weeks, and used for binding assays at receptors.
(2) Experiments of α1β1γδ Subtype of Nicotinic Acetylcholine Receptors Binding
Receptors binding experiments were performed as follow. That is, the extract of rat muscle containing 600-900 μg of protein was added to test tubes containing test compounds and incubated for 15 minutes at 37° C. Then, to this mixture was added 1 nM of [^3H]-α-bungarotoxin (α-Bgt) and further incubated for 2 hours. The samples were isolated by vacuum filtration onto Whatman GF/B filters, which were prerinsed with 0.5% polyethylenimine just prior to sample filtration, using Brandel multi manifold cell harvester. The filters were rapidly rinsed with washing solution (10 mM of KH2PO4, 150 mM of NaCl, pH 7.2, room temperature) (5×1 ml). The filters were counted in 3 ml of clearsol I (Nacalai Tesque Inc.). The determination of nonspecific binding was incubated in the presence of 1 μM α-Bgt. The solutions containing α-Bgt (labeled/non-labeled) were prepared by using buffer solution containing 0.25% of BSA. In the receptor binding experiments, said buffer solution was added for adjusting the final concentration of BSA to be 0.05%.
The analyses of the experimental results were conducted by the same way as described in the Biological Experiment 1.

[3] = 1 μM of test compound, rat brain membrane
[4] = 10 μM of test compound, rat brain membrane

Chain of α1β1γδ subtype of nicotinic acetylcholine receptors (P25109 24-501): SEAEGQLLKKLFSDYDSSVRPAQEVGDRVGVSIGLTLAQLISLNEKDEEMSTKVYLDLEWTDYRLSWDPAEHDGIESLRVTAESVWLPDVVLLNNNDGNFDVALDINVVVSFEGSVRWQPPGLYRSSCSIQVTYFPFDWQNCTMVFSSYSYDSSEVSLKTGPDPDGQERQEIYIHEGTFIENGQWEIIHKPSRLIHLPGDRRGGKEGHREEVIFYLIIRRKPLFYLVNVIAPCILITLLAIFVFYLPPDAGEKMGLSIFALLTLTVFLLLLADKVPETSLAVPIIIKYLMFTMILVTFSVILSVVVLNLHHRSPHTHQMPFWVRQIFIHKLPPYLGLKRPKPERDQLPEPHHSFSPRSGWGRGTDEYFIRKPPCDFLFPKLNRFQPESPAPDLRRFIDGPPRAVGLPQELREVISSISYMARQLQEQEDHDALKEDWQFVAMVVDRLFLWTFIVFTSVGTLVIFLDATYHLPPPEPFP
Chain of α1β1γδ subtype of nicotinic acetylcholine receptors (P25110 22-517): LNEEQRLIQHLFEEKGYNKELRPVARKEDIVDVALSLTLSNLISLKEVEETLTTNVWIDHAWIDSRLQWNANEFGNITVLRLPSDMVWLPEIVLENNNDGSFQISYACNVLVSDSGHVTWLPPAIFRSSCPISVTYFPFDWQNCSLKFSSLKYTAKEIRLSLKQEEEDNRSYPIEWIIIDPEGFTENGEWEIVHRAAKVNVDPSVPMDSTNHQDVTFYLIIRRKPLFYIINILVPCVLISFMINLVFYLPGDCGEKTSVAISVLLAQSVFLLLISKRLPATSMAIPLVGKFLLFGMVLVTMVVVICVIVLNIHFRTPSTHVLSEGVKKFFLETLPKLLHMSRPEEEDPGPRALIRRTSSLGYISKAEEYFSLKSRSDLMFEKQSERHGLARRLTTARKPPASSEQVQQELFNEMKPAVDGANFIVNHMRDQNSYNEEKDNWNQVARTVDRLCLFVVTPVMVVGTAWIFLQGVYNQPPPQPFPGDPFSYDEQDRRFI
Chain of α1β1γδ subtype of nicotinic acetylcholine receptors (P25108 21-457): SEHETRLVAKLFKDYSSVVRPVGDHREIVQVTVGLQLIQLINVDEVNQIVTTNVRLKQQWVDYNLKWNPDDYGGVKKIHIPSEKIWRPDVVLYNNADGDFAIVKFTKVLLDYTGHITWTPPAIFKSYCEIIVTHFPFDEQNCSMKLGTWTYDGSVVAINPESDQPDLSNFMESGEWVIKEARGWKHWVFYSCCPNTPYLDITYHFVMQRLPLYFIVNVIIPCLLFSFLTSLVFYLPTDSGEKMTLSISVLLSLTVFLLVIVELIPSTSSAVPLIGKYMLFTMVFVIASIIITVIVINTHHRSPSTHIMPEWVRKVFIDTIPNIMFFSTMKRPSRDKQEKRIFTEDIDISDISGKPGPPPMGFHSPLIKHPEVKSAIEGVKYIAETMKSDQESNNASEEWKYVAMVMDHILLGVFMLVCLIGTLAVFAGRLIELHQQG
Chain of α1β1γδ subtype of nicotinic acetylcholine receptors (P18916 23-519): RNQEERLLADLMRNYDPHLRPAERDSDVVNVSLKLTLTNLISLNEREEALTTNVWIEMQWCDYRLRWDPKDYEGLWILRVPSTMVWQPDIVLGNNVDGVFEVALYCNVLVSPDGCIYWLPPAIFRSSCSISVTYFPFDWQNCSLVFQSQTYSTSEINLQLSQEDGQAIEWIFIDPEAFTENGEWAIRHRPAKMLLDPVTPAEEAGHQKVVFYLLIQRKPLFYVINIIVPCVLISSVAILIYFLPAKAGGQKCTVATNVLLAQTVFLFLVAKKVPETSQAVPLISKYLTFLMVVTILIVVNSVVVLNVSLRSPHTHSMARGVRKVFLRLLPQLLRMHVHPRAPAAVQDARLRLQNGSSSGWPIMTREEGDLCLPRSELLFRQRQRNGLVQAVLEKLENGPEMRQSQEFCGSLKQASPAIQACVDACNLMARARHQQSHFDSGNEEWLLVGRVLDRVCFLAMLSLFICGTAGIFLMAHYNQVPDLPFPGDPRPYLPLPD
T1 sequence (P09483 31-630): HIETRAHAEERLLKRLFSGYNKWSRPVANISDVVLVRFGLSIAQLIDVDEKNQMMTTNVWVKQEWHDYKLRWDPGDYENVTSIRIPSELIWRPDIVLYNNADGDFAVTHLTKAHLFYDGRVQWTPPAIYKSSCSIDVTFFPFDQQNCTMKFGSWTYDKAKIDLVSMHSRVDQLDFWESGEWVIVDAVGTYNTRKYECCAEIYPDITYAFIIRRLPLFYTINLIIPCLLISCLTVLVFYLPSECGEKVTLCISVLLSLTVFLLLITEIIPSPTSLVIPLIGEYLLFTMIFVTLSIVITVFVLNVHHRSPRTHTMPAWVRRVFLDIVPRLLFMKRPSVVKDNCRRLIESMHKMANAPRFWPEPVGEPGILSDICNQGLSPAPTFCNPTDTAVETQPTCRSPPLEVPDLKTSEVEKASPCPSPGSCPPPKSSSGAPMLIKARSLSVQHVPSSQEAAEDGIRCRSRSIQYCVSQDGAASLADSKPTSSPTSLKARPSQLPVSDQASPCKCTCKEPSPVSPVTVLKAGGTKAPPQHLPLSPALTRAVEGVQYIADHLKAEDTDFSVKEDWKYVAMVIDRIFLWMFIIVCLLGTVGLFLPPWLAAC
T1 sequence (P12390 25-500): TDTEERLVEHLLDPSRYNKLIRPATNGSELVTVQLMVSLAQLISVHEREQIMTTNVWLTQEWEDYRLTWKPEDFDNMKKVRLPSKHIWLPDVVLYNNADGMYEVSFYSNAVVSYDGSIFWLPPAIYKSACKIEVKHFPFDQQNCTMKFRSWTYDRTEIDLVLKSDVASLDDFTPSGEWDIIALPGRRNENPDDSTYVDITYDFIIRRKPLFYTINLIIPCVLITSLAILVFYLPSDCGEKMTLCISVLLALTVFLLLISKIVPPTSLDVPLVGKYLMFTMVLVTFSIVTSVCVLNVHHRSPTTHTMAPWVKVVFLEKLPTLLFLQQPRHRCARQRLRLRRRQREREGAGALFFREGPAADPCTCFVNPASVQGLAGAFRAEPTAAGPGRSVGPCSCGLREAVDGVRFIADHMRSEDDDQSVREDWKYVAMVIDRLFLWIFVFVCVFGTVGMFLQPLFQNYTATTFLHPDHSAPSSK

Compound: N=c1ccc(Cl)nn1CCc1ccc(Cl)nc1 [Compound 15, 6-chloro-2-[2-(6-chloro-3-pyridyl)ethyl]-3-imino-2,3-dihydropyridazine]
- remaining activity at 1 µM [1]: 60%
- remaining activity at 10 µM [1]: 12%
- remaining activity at 100 µM [2]: 93%
- remaining activity at 1000 µM [2]: 61%

Compound: CC(=O)Cn1ccsc1=N [Compound 2, 3-acetonyl-2-imino-2,3-dihydrothiazole]
- remaining activity at 1 µM [1, 3]: 107%
- remaining activity at 10 µM [1, 4]: 101%

Compound: Cc1csc(=N)n1CCc1ccc(Cl)nc1 [Compound 4, 3-[2-(6-chloro-3-pyridyl)ethyl]-2-imino-4-methyl-2,3-dihydrothiazole]
- Ki [1]: 5.6 nM
- Ki [2]: 10 µM

Compound: N=C1SCCN1CC(=O)c1ccc(Cl)nc1 [Compound 8, 1-(6-chloro-3-pyridyl)-2-(2-imino-3-thiazolidinyl)-1-ethanone]
- Ki [1]: 62 nM
- Ki [2]: 1830 µM

Compound: N=c1sccn1CCc1ccc(Cl)nc1 [Compound 22, 3-[2-(6-chloro-3-pyridyl)ethyl]-2-imino-2,3-dihydrothiazole]
- Ki [1]: 7.4 nM
- Ki [2]: 132 µM

Compound: Nc1nccn1CCc1ccccc1Sc1ccc(O)cc1 [Compound 32, 2-amino-1-{2-[2-(4-hydroxyphenyl)thiophenyl]ethyl}-imidazole]
- remaining activity at 1 µM [1, 3]: 102%
- remaining activity at 10 µM [1, 4]: 73%
- remaining activity at 100 µM [2]: 107%
- remaining activity at 1000 µM [2]: 81%

Compound: COc1ccc(Sc2ccccc2CCn2ccnc2N)cc1 [Compound 33, 2-amino-1-{2-[2-(4-methoxyphenyl)thiophenyl]ethyl}-imidazole]
- remaining activity at 1 µM [1, 3]: 111%
- remaining activity at 10 µM [1, 4]: 92%
- remaining activity at 100 µM [2]: 119%
- remaining activity at 1000 µM [2]: 85%

Compound: Nc1nccn1CCc1ccncc1 [Compound 20, 2-amino-1-[2-(4-pyridyl)ethyl]imidazole]
- remaining activity at 1 µM [1, 3]: 97%
- remaining activity at 10 µM [1, 4]: 95%
- remaining activity at 100 µM [2]: 109%
- remaining activity at 1000 µM [2]: 90%

Compound: CN1CCCC1c1cccnc1 (single isomer, unassigned; (-)) [Nicotine, (−)-nicotine, reference compound]
- Ki [2]: 182 µM

Compound: Cc1cn(CCc2ccc(Cl)nc2)c(=N)s1 [Compound 6, 3-[2-(6-chloro-3-pyridyl)ethyl]-2-imino-5-methyl-2,3-dihydro-thiazole]
- remaining activity at 1 µM [1]: 77%
- remaining activity at 10 µM [1]: 35%
- remaining activity at 100 µM [2]: 82%
- remaining activity at 1000 µM [2]: 61%

Compound: N=C1SCCN1CCc1ccc(Cl)nc1 [Compound 5, 3-[2-(6-chloro-3-pyridyl)ethyl]-2-iminothiazolidine]
- Ki [1]: 4.8 nM
- Ki [2]: 34 µM

Compound: Nc1nccn1CCc1cncnc1Cl [Compound 35, 2-amino-1-[2-(4-chloro-5-pyrimidyl)ethyl]imidazole]
- remaining activity at 1 µM [1]: 61%
- remaining activity at 10 µM [1]: 17%
- remaining activity at 100 µM [2]: 87%
- remaining activity at 1000 µM [2]: 49%

Compound: N=c1ccccn1CCc1ccc(Cl)nc1 [Compound 16, 1-[2-(6-chloro-3-pyridyl)ethyl]-2-imino-1,2-dihydropyridine]
- Ki [1]: 61 nM
- Ki [2]: 227 µM

Compound: Cc1nc(N)n(CCc2ccc(Cl)nc2)c1C [Compound 21, 2-amino-1-[2-(6-chloro-3-pyridyl)ethyl]-4,5-dimethylimidazole]
- Ki [1]: 97 nM
- Ki [2]: 175 µM

Compound: N=c1sccn1CCc1cnc(Cl)s1 [Compound 24, 3-[2-(2-chloro-5-thiazolyl)ethyl]-2-imino-2,3-dihydrothiazole]
- Ki [1]: 35 nM
- Ki [2]: 58 µM

Compound: N=C1SCCN1CC(=O)c1ccccc1 [Compound 1, 2-imino-3-phenacylthiazolidine]
- remaining activity at 1 µM [1, 3]: 93%
- remaining activity at 10 µM [1, 4]: 68%

Compound: N=c1ncccn1CCc1ccc(Cl)nc1 [Compound 3, 1-[2-(6-chloro-3-pyridyl)ethyl]-2-imino-1,2-dihydropyrimidine]
- remaining activity at 1 µM [1]: 72%
- remaining activity at 10 µM [1]: 17%
- remaining activity at 100 µM [2]: 72%
- remaining activity at 1000 µM [2]: 39%

Compound: Nc1nccn1CCc1ccc(Cl)nc1 [Compound 7, 2-amino-1-[2-(6-chloro-pyridyl)ethyl]imidazole]
- Ki [1]: 4.9 nM
- Ki [2]: 184 µM

Compound: Cc1cncc(CCn2ccsc2=N)c1 [Compound 28, 2-imino-3-[2-(5-methyl-3-pyridyl)ethyl]-2,3-dihydrothiazole]
- Ki ([1]; rat brain membrane, [3H]-cytisine 2 nM, read-out: Affinities for receptors Ki α4β2): 27 nM
- Ki [2]: 94 µM

Compound: N=C1SCCN1CC(O)c1ccc(Cl)nc1 (centres unmarked) [Compound 9, 1-(6-Chloro-3-pyridyl)-2-(2-imino-3-thiazolidinyl)-1-ethanol]
- remaining activity at 1 µM [1]: 97%
- remaining activity at 10 µM [1]: 43%
- remaining activity at 100 µM [2]: 72%
- remaining activity at 1000 µM [2]: 35%

Compound: Nc1nccn1CCc1ccc(Cl)cc1 [Compound 17, 2-amino-1-[2-(4-chlorophenyl)ethyl]imidazole]
- remaining activity at 1 µM [1, 3]: 97%
- remaining activity at 10 µM [1, 4]: 78%
- remaining activity at 100 µM [2]: 83%
- remaining activity at 1000 µM [2]: 67%

Compound: CC(Cn1ccsc1=N)c1ccc(Cl)nc1 (centres unmarked) [Compound 18, 3-[2-(6-chloro-3-pyridyl)propyl]-2-imino-2,3-dihydrothiazole]
- Ki [1]: 84 nM
- Ki [2]: 173 µM

Compound: Nc1nccn1CCc1ccccn1 [Compound 19, 2-amino-1-[2-(2-pyridyl)ethyl]imidazole]
- remaining activity at 1 µM [1, 3]: 103%
- remaining activity at 10 µM [1, 4]: 106%
- remaining activity at 100 µM [2]: 106%
- remaining activity at 1000 µM [2]: 86%

Compound: Cc1sc(=N)n(CCc2ccc(Cl)nc2)c1C [Compound 10, 3-[2-(6-chloro-3-pyridyl)ethyl]-2-imino-4,5-dimethyl-2,3-dihydrothiazole]
- Ki [1]: 51 nM
- Ki [2]: 215 µM

Compound: Nc1nccn1CCc1ccc(O)cc1 [Compound 26, 2-amino-1-[2-(4-hydroxyphenyl)ethyl]imidazole]
- remaining activity at 1 µM [1, 3]: 93%
- remaining activity at 10 µM [1, 4]: 60%
- remaining activity at 100 µM [2]: 81%
- remaining activity at 1000 µM [2]: 50%
